Assay results: patent publication US11426397B2, “Piperidinyl- and piperazinyl-substituted heteroaromatic carboxamides as modulators of GPR6” (TAKEDA PHARMACEUTICAL COMPANY LIMITED, priority 2017, dated 2022)

Biological target: T1, GPR6 receptor expressed in CHO-K1 cells (Homo sapiens, UniProt P46095)
T1 construct: expressed in transfected cells
Assay: In vitro inhibition of cAMP (EC50), cell-based HTRF cAMP assay
Conditions: inhibition of constitutive cAMP activity of GPR6 in CHO-K1 cells
In short: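 Tetracycline-inducible CHO-K1 line, GPR6 expression induced 20 h with 2 μg/mL doxycycline. Compounds incubated 45 min at 37 °C in Ringer's buffer (pH 7.4) with 0.5% fatty acid free BSA and 300 μM IBMX. Constitutive cAMP read by Lance HTRF; EC50 from four-parameter logistic fit.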

T1 sequence (P46095 whole entry): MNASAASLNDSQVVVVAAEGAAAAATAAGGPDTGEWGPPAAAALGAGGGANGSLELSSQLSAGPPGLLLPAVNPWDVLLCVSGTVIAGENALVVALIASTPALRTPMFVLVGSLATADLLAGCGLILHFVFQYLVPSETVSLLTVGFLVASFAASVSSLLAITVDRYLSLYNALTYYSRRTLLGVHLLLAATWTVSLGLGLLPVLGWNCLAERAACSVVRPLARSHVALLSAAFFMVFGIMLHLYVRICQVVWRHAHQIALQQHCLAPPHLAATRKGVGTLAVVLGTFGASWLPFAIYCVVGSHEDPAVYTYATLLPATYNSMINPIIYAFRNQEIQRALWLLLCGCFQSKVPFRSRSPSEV

| pEC50, in vitro inhibition of cAMP | SMILES |
| --- | --- |
| <5.7 | Cc1nonc1C(=O)Nc1cc(C#N)ccc1N1CCC(Oc2ccc(F)cc2F)CC1 [Example 119, N-(5-cyano-2-(4-(2,4-difluorophenoxy)piperidin-1-yl)phenyl)-4-methyl-1,2,5-oxadiazole-3-carboxamide] |
| 7.0 | COc1ncccc1C(=O)Nc1cc(C#N)ccc1N1CCN(Cc2ccccc2C#N)CC1 [Example 245, N-(5-cyano-2-(4-(2-cyanobenzyl)piperazin-1-yl)phenyl)-2-methoxynicotinamide] |
| 6.6 | Cc1cccc2ncc(C(=O)Nc3cc(C#N)ccc3N3CCC(Oc4ccc(F)cc4F)CC3)c(=O)n12 [Example 187, N-(5-cyano-2-(4-(2,4-difluorophenoxy)piperidin-1-yl)phenyl)-6-methyl-4-oxo-4H-pyrido[1,2-a]pyrimidine-3-carboxamide] |
| 7.0 | COc1cc(Br)ccc1C(=O)Nc1cc(C#N)ccc1N1CCC(Oc2ccc(F)cc2F)CC1 [Example 226, 4-bromo-N-(5-cyano-2-(4-(2,4-difluorophenoxy)piperidin-1-yl)phenyl)-2-methoxybenzamide] |
| 7.2 | COc1ccsc1C(=O)Nc1cc(C#N)ccc1N1CCC(Oc2ccc(F)cc2F)CC1 [Example 46, N-(5-cyano-2-(4-(2,4-difluorophenoxy)piperidin-1-yl)phenyl)-3-methoxythiophene-2-carboxamide] |
| 6.9 | COc1ncccc1C(=O)Nc1cc(C#N)ccc1N1CCN(Cc2cccc(C#N)c2)CC1 [Example 248, N-(5-cyano-2-(4-(3-cyanobenzyl)piperazin-1-yl)phenyl)-2-methoxynicotinamide] |
| <5.7 | Cn1ncc2ccc(NC(=O)c3ccccn3)c(N3CCC(Oc4ccc(F)cc4F)CC3)c21 [Example 77, N-(7-(4-(2,4-difluorophenoxy)piperidin-1-yl)-1-methyl-1H-indazol-6-yl)picolinamide] |
| 7.2 | COc1cc(Cl)ccc1C(=O)Nc1cc(C#N)ccc1N1CCC(Oc2ccc(F)cc2F)CC1 [Example 228, 4-chloro-N-(5-cyano-2-(4-(2,4-difluorophenoxy)piperidin-1-yl)phenyl)-2-methoxybenzamide] |
| 6.9 | Cn1ccc(C(=O)Nc2cc(C#N)ccc2N2CCC(Oc3ccc(F)cc3F)CC2)n1 [Example 42, N-(5-cyano-2-(4-(2,4-difluorophenoxy)piperidin-1-yl)phenyl)-1-methyl-1H-pyrazole-3-carboxamide] |
| 6.8 | COc1nc(Cl)ccc1C(=O)Nc1cc(C#N)ccc1N1CCC(Oc2ccc(F)cc2F)CC1 [Example 191, 6-chloro-N-(5-cyano-2-(4-(2,4-difluorophenoxy)piperidin-1-yl)phenyl)-2-methoxynicotinamide] |
| 6.1 | N#Cc1ccc(N2CCC(Oc3ccc(F)cc3F)CC2)c(NC(=O)c2cocn2)c1 [Example 122, N-(5-cyano-2-(4-(2,4-difluorophenoxy)piperidin-1-yl)phenyl)oxazole-4-carboxamide] |
| 6.4 | COc1c(C)cccc1C(=O)Nc1cc(C#N)ccc1N1CCC(Oc2ccc(F)cc2F)CC1 [Example 232, N-(5-cyano-2-(4-(2,4-difluorophenoxy)piperidin-1-yl)phenyl)-2-methoxy-3-methylbenzamide] |
| 7.1 | COc1ccncc1C(=O)Nc1cnc(C)cc1N1CCC(Oc2ccc(F)cc2F)CC1 [Example 263] |
| 6.7 | COc1ccc(CN2CCN(c3ncc(C#N)cc3NC(=O)c3cn(C)nc3OC)CC2)cc1 [Example 157, N-(5-cyano-2-(4-(4-methoxybenzyl)piperazin-1-yl)pyridin-3-yl)-3-methoxy-1-methyl-1H-pyrazole-4-carboxamide] |
| 6.8 | COc1ncccc1C(=O)Nc1cc(C#N)ccc1N1CCN(Cc2cccc(F)c2)CC1 [Example 240, N-(5-cyano-2-(4-(3-fluorobenzyl)piperazin-1-yl)phenyl)-2-methoxynicotinamide] |
| 4.9 | CN(C(=O)c1ccccc1O)c1ccccc1N1CCN(C(=O)c2ccc(Cl)cc2)CC1 [Example 260] |
| 6.9 | Cc1cc(C(=O)Nc2cc(C#N)ccc2N2CCC(Oc3ccc(F)cc3F)CC2)nn1C [Example 113, N-(5-cyano-2-(4-(2,4-difluorophenoxy)piperidin-1-yl)phenyl)-1,5-dimethyl-1H-pyrazole-3-carboxamide] |
| 7.1 | COc1nc(C)ccc1C(=O)Nc1cnc(C#N)nc1N1CCC(Oc2ccc(F)cc2F)CC1 [Example 280, N-(2-cyano-4-(4-(2,4-difluorophenoxy)piperidin-1-yl)pyrimidin-5-yl)-2-methoxy-6-methylnicotinamide] |
| 6.0 | COc1cc(F)cc(CN2CCN(c3ncc(C#N)cc3NC(=O)c3cn(C)nc3OC)CC2)c1 [Example 159, N-(5-cyano-2-(4-(3-fluoro-5-methoxybenzyl)piperazin-1-yl)pyridin-3-yl)-3-methoxy-1-methyl-1H-pyrazole-4-carboxamide] |

| pEC50, in vitro inhibition of cAMP | SMILES |
| --- | --- |
| 6.6 | Cc1ccc(Cl)c(OC2CCN(c3ncc(C#N)cc3NC(=O)c3ccccn3)CC2)c1 [Example 68, N-(2-(4-(2-chloro-5-methylphenoxy)piperidin-1-yl)-5-cyanopyridin-3-yl)picolinamide] |
| 6.6 | Cn1cccc(C(=O)Nc2cc(C#N)ccc2N2CCC(Oc3ncc(F)cc3F)CC2)c1=O [Example 293, N-(5-cyano-2-(4-((3,5-difluoropyridin-2-yl)oxy)piperidin-1-yl)phenyl)-1-methyl-2-oxo-1,2-dihydropyridine-3-carboxamide] |
| 6.8 | COc1c(F)cc(F)cc1C(=O)Nc1cc(C#N)ccc1N1CCC(Oc2ccc(F)cc2F)CC1 [Example 207, N-(5-cyano-2-(4-(2,4-difluorophenoxy)piperidin-1-yl)phenyl)-3,5-difluoro-2-methoxybenzamide] |
| 7.3 | COc1ncccc1C(=O)Nc1cc(C#N)cnc1N1CCN(Cc2ccc(F)cc2)CC1 [Example 75, N-(5-cyano-2-(4-(4-fluorobenzyl)piperazin-1-yl)pyridin-3-yl)-2-methoxynicotinamide] |
| 6.8 | Cc1csc(C(=O)Nc2cc(C#N)ccc2N2CCC(Oc3ccc(F)cc3F)CC2)n1 [Example 51, N-(5-cyano-2-(4-(2,4-difluorophenoxy)piperidin-1-yl)phenyl)-4-methylthiazole-2-carboxamide] |
| 6.8 | COc1ncccc1C(=O)Nc1cnc(C(=O)NC(C)C)cc1N1CCC(Oc2ccc(F)cc2F)CC1 [Example 253, 4-(4-(2,4-difluorophenoxy)piperidin-1-yl)-N-isopropyl-5-(2-methoxynicotinamido)picolinamide] |
| 6.5 | COc1ncccc1C(=O)Nc1cc(C#N)ccc1N1CCN(Cc2ccsc2)CC1 [Example 73, N-(5-cyano-2-(4-(thiophen-3-ylmethyl)piperazin-1-yl)phenyl)-2-methoxynicotinamide] |
| 6.2 | Cc1cc(=O)c(C(=O)Nc2cc(C#N)ccc2N2CCC(Oc3ccc(F)cc3F)CC2)cn1C [Example 24, N-(5-cyano-2-(4-(2,4-difluorophenoxy)piperidin-1-yl)phenyl)-1,6-dimethyl-4-oxo-1,4-dihydropyridine-3-carboxamide] |
| 7.1 | Cc1nc(C(=O)Nc2cc(C#N)ccc2N2CCC(Oc3ccc(F)cc3F)CC2)ccc1F [Example 137, N-(5-cyano-2-(4-(2,4-difluorophenoxy)piperidin-1-yl)phenyl)-5-fluoro-6-methylpicolinamide] |
| 7.2 | COc1ccc(CC2CCN(c3ccc(C#N)cc3NC(=O)c3cccn(C)c3=O)CC2)c(F)c1 [Example 90, N-(5-cyano-2-(4-(2-fluoro-4-methoxybenzyl)piperidin-1-yl)phenyl)-1-methyl-2-oxo-1,2-dihydropyridine-3-carboxamide] |
| 6.6 | COc1ncccc1C(=O)Nc1cc(C#N)ccc1N1CCN(Cc2cccs2)CC1 [Example 72, N-(5-cyano-2-(4-(thiophen-2-ylmethyl)piperazin-1-yl)phenyl)-2-methoxynicotinamide] |
| 6.7 | COc1nn(C)cc1C(=O)Nc1cc(C#N)cnc1N1CCN(Cc2cccc(OC(F)(F)F)c2)CC1 [Example 165, N-(5-cyano-2-(4-(3-(trifluoromethoxy)benzyl)piperazin-1-yl)pyridin-3-yl)-3-methoxy-1-methyl-1H-pyrazole-4-carboxamide] |
| 6.8 | Cc1ccc(C(=O)Nc2cc(C#N)ccc2N2CCC(Oc3ccc(F)cc3F)CC2)c(=O)n1C [Example 79, N-(5-cyano-2-(4-(2,4-difluorophenoxy)piperidin-1-yl)phenyl)-1,6-dimethyl-2-oxo-1,2-dihydropyridine-3-carboxamide] |
| 6.9 | Cn1cccc(C(=O)Nc2cc(C#N)ccc2N2CCC(Oc3ccccc3F)CC2)c1=O [Example 8] |
| 6.5 | COc1ncccc1C(=O)Nc1cc(C#N)ccc1N1CCN(Cc2c(F)cccc2Cl)CC1 [Example 71] |
| 7.0 | N#Cc1ccc(N2CCC(Oc3ccc(F)cc3F)CC2)c(NC(=O)c2ccc[nH]c2=O)c1 [Example 274] |
| 6.2 | Cn1ccnc1C(=O)Nc1cc(C#N)ccc1N1CCC(Oc2ccc(F)cc2F)CC1 [Example 50, N-(5-cyano-2-(4-(2,4-difluorophenoxy)piperidin-1-yl)phenyl)-1-methyl-1H-imidazole-2-carboxamide] |
| 7.2 | Cn1cccc(C(=O)Nc2cc(C#N)ccc2N2CCC([C@@H](F)c3ccc(F)cc3F)CC2)c1=O [Example 85, (R)—N-(5-cyano-2-(4-((2,4-difluorophenyl)fluoromethyl)piperidin-1-yl)phenyl)-1-methyl-2-oxo-1,2-dihydropyridine-3-carboxamide] |
